pIC50: −log10 of the molar value. Where two headings read alike, the source gives them in different places.
System: VLP-16 pseudovirions of the HPV-16 virus
Details: for inhibitory concentration 50 (IC50) / pIC50: estimated; for pIC50: read-out: inhibitory concentration 50 (IC50)
Procedure: This experiment provides the data and analysis of an in vitro “AC” experimental treatment against the HPV-16 papillomavirus which was carried out by neutralizing the entry of viral pseudo particles (VLP-16) of the HPV-16 virus which was inoculated into Cos-7 cells, pretreated or treated contemporaneously to the inoculation of the VLP-16 with solutions of increasing concentrations of the said ascorbo-camphorate compound (AC).
In the case of the present tests in this example, pseudovirions were produced at the Université François Rabelais de Tours (France), under the direction of Professor A. Touzet. In brief, the VLP-16 virus pseudo particles or pseudovirions or VLPs were produced by transfection of purified plasmids containing the L1 and L2 structural proteins of the HPV-16 capsomers, and carrying a gene encoding the luciferase marker gene, into cell culture of the 293-cell line. VLP-16s were collected by nuclear lysis, with purification by […] gradient ultracentrifugation.
The positive control for the neutralization assay as disclosed herein used purified VLP-16 inoculum pre-incubated with purified antibodies against HPV (incubation for 1 hour of said VLP nuclear lysate in a solution of anti-HPV antibodies in DMED culture medium). These anti-HPV antibodies served as a positive control in the plaque assay for neutralization of Cos-7 cell infection by VLP-16.
Cells of the Cos-7 cell line were cultured in 96-well microplates, 5% CO2 and 98% H2O, at 37° C. Inoculation of Cos-7 cells was performed as follows: the inoculum mixture was added to the wells containing the confluent Cos-7 sheets, incubated for 72 hours at 37° C., 5% CO2 and 98% H2O, and the supernatant is washed and discarded from the mixture.
Cos-7 cells that may have internalized the luciferase-expressing VLPs were then recovered. The Cos-7 cells were then lysed; then the substrate (luciferin) of the reporter gene (luciferase) was added with dark incubation, for reading using a luminometer.
For each series, the experiments were repeated three times.
To assess pseudovirions infectivity, linear reporter gene expression and to perform titration of pseudovirions solutions, Cos-7 cells were grown (10^4 cells/well) in supplemented DMEM in 96-well plates (Thermo Fisher Scientific) in 5% CO2 at +37° C. until cell confluence was 40-50%. Cells were transduced by replacing the culture medium with fresh unsupplemented DMEM containing serial dilutions of the previously produced PsVs stock solutions and incubated at +37° C. One well containing 1 μg of the pGL4.10[luc2] vector, encoding the luciferase reporter gene, was made as a positive control and another was the cell control for background luminescence (without PsVs or reporter plasmid). After a 3 hours incubation period, 100 μL of growth medium was added to each well and the transduced Cos-7 cells were incubated for 48 h at +37° C. in 5% CO2. Then, the growth medium was removed and the transduced Cos-7 cells were washed with DPBS and incubated in the dark for 15 min in 100 μL of Pierce™ Firefly Luciferase One-Step Glow Assay (Thermo Fisher Scientific). The resulting cell lysates were harvested and transferred to white, 96-well microplates and luciferase enzyme activity was measured using the Luminoskan Ascent brand luminometer (from Thermo Fisher Scientific) after adding 50 μL of luciferin substrate to each well.
Serial dilutions of the stock solution of compound “AC” covering an appropriate concentration range were subjected to an HPV inhibition assay based on VLP-16 pseudovirions.

[1] = pseudovirions added simultaneously

Substance: zinc tetra-ascorbo-camphorate [C14]
- inhibition of VLP-16 internalization (contemporaneous addition, 1/10 dilution (515.5 μM)): Total inhibition
- inhibition of VLP-16 penetration into Cos-7 cells (contemporaneous addition, dilution 1:10^3 (51.5 μM)): 33%
- inhibitory concentration 50 (IC50) (pre-treatment of Cos-7 cells): 2.8 µg/mL
- inhibition of penetration of VLP-16 into Cos-7 cells (pretreatment, compared to untreated infected controls): 30-40%
- inhibition of VLP-16 internalization (pretreatment, dilution 1/10^2 (515.5 μM)): total inhibition
- inhibitory concentration 50 (IC50) [1]: 8.1 µg/mL
- pIC50 (pre-treatment of Cos-7 cells): 5.54
- pIC50 [1]: 5.08

Source: patent US20230114627A1, “COMPOSITION COMPRISING A METAL ASCORBO-CAMPHORATE COMPOUND AND METHOD FOR PREVENTION AND/OR TREATMENT OF PAPILLOMAVIRUS INFECTIONS” (MGB PHARMA Inc., priority 2020, published 2023)
